Read-outs that look alike come from different tables or passages of the source.
How the values were obtained:
[1] = system: WT TIE-1 with an empty vector (pRhokS-2); assay type: cell-based, Rhodopseudomonas palustris TIE-1; details: for Doubling time: WT with pAB423; for effect on TIE-1 growth of the amount produced in the study: amounts produced by the engineered strains (n-butanol up to 4.98 mg/L; acetone up to about 290 mg/L)
Procedure: Toxicity Study. WT TIE-1 with an empty vector (pRhokS-2) was used to test the tolerance of TIE-1 for acetone and n-butanol. To test the tolerance, 0, 0.25, 0.5, 1, or 2% n-butanol (v/v), or 0, 0.1, 0.25, 0.5, 1, or 2% acetone (v/v), was added to FW media with acetate (10 mM). Growth was monitored by recording OD660 overtime.

[2] = system: phiC31 integrase (Streptomyces phage phiC31?); assay: cell_activity

CC(C)=O [acetone]
Doubling time ([1]; acetone 1960 mg/L in media): 6.74 h
Doubling time ([1]; acetone 3920 mg/L in media): 5.82 h
Doubling time ([1]; acetone 7840 mg/L in media): 5.56 h
Doubling time ([1]; acetone 15680 mg/L in media): 4.88 h
effect on TIE-1 growth of the amount produced in the study [1]: does not limit TIE-1's growth

CCCCO [n-butanol]
Doubling time ([1]; n-butanol 2025 mg/L in media): 20.091 h
Doubling time ([1]; n-butanol 4050 mg/L in media): No growth
Doubling time ([1]; n-butanol 8100 mg/L in media): No growth
Doubling time ([1]; n-butanol 16200 mg/L in media): No growth
effect on TIE-1 growth of the amount produced in the study [1]: does not limit the growth of TIE-1
lowest inhibitory concentration of n-butanol for TIE-1 ([1]; toxicity assay, FW media with acetate (10 mM)): 4050 mg/L

phiC31 attB site (in TIE-1 genome at glmUSX-recG locus)
activity ([2]; attB x attP integration of mcherry in R. palustris TIE-1, editing efficiency 100% for genome-based system and constitutive plasmid system, about 80% for …): 100%

phiC31 attP site (on suicide plasmid pWB081/pWB088)
activity ([2]; attP donor plasmid partner of attB, same integration assay, about 80% with inducible plasmid system): 100%
